Reference: US4946844A, “Optically active benzoquinolizine compounds, process for preparing same, and antibacterial preparation containing same as active ingredient” (Tokyo Tanabe Co., Ltd., priority 1987, dated 1990)

How the values were obtained:
[1] = Solubility in water; type: physicochemical
Method: The solubilities of the present compound (which had been prepared in Example 1) and its racemate in water were determined.

[2] = tested on: Bacillus subtilis ATCC 6633; test: In vitro antibacterial activity (minimum inhibitory concentration); type: cell-based; conditions: 37° C.; for Minimum inhibitory concentration: 20 hours, hydrochloride monohydrate
Method: (§1) The in vitro antimicrobial activity of a typical compound in accordance with the present invention (hereinafter referred to as the present compound) was evaluated in terms of minimum inhibitory concentrations for various Gram-positive and Gram-negative bacteria. The Gram-positive bacteria used as test microorganisms included Bacillus subtilis, Staphylococcus aureus, Staphylococcus epidermidis and Streptococcus pyogenes, and the Gram-negative bacteria used as test microorganisms included Escherichia coli, Enterobacter cloacae, Klebsiella pneumoniae, Proteus vulgaris, Pseudomonas aeruginosa, Serratia marcescens, Salmonella enteritidis and Morganella morganii. The minimum inhibitory concentrations (for the test microorganisms cultured at 37° C. for 20 hours) were determined according to the standard method prescribed by the Japanese Chemotherapeutic Society (Journal of the Japanese Chemotherapeutic Society, Vol. 29, No. 1, p. 76, 1981). As the present compound, there was used (+)-9-fluoro-5-methyl-8-(4-methyl-1-piperazinyl)-6,7-dihydro-1,7-dioxo1H,5H-benzo[ij]quinolizine-2-carboxylic acid hydrochloride monohydrate which had been prepared in Example 1 described later. For purposes of comparison, control compounds were evaluated in the same manner as described above. These control compounds comprised the optically active (-)-isomer of the aforesaid compound (which had been prepared in Reference Example described later) and the racemate thereof.

[3] = tested on: Streptococcus pyogenes ATCC 19615; test: as above; type: cell-based; conditions: 37° C.; for Minimum inhibitory concentration: 20 hours, hydrochloride monohydrate
Method: as §1

[4] = tested on: Serratia marcescens IAM 1184; test: as above; type: cell-based; conditions: 37° C.; for Minimum inhibitory concentration: 20 hours, hydrochloride monohydrate
Method: as §1

[5] = tested on: Morganella morganii IFO 3848; test: as above; type: cell-based; conditions: 37° C.; for Minimum inhibitory concentration: 20 hours, hydrochloride monohydrate
Method: as §1

[6] = tested on: Escherichia coli NIHJ JC-2; test: as above; type: cell-based; conditions: 37° C.; for Minimum inhibitory concentration: 20 hours, hydrochloride monohydrate
Method: as §1

[7] = tested on: Pseudomonas aeruginosa PAO 1; test: as above; type: cell-based; conditions: 37° C.; for Minimum inhibitory concentration: 20 hours, hydrochloride monohydrate
Method: as §1

[8] = tested on: Klebsiella pneumoniae PCI 602; test: as above; type: cell-based; conditions: 37° C.; for Minimum inhibitory concentration: 20 hours, hydrochloride monohydrate
Method: as §1

[9] = tested on: Proteus vulgaris ATCC 13315; test: as above; type: cell-based; conditions: 37° C.; for Minimum inhibitory concentration: 20 hours, hydrochloride monohydrate
Method: as §1

[10] = tested on: Enterobacter cloacae 963; test: as above; type: cell-based; conditions: 37° C.; for Minimum inhibitory concentration: 20 hours, hydrochloride monohydrate
Method: as §1

[11] = tested on: Staphylococcus aureus FDA 209P JC-1; test: as above; type: cell-based; conditions: 37° C.; for Minimum inhibitory concentration: 20 hours, hydrochloride monohydrate
Method: as §1

[12] = tested on: Salmonella enteritidis G 14; test: as above; type: cell-based; conditions: 37° C.; for Minimum inhibitory concentration: 20 hours, hydrochloride monohydrate
Method: as §1

[13] = tested on: Staphylococcus epidermidis IAM 1296; test: as above; type: cell-based; conditions: 37° C.; for Minimum inhibitory concentration: 20 hours, hydrochloride monohydrate
Method: as §1

[14] = tested on: various Gram-positive and Gram-negative bacteria; test: In vitro antibacterial activity over all test microorganisms (comparison of potency); type: cell-based; conditions: versus racemate
Method: as §1, with “These control compounds comprised the optically active (-)-isomer of the aforesaid compound (which had been prepared in Reference Example described later) and the racemate thereof.” left out

Row | SMILES | solubility [1] [mg/mL] | Minimum inhibitory concentration [2] [µg/mL] | Minimum inhibitory concentration [3] [µg/mL] | Minimum inhibitory concentration [4] [µg/mL] | Minimum inhibitory concentration [5] [µg/mL] | Minimum inhibitory concentration [6] [µg/mL] | Minimum inhibitory concentration [7] [µg/mL] | Minimum inhibitory concentration [8] [µg/mL] | Minimum inhibitory concentration [9] [µg/mL] | Minimum inhibitory concentration [10] [µg/mL] | Minimum inhibitory concentration [11] [µg/mL] | Minimum inhibitory concentration [12] [µg/mL] | Minimum inhibitory concentration [13] [µg/mL] | other results
1 | CC1CC(=O)c2c(N3CCN(C)CC3)c(F)cc3c(=O)c(C(=O)O)cn1c23.Cl.O (racemic) [Racemate, (±)-9-fluoro-5-methyl-8-(4-methyl-1-piperazinyl)-6,7-dihydro-1,7-dioxo-1H,5H-benzo[ij]quinolizine-2-carboxylic acid hydrochloride monohydrate] | ~7 | – | – | – | – | – | – | – | – | – | – | – | – | MIC ([2]; Bacillus subtilis, ATCC6633, 20 h): 0.1 µg/mL; MIC ([3]; Streptococcus pyogenes, ATCC19615, 20 h): 6.25 µg/mL; MIC ([4]; Serratia marcescens, IAM1184, 20 h): 1.56 µg/mL; MIC ([5]; Morganella morganii, IFO3848, 20 h): 0.1 µg/mL; MIC ([6]; Escherichia coli, NIHJJC2, 20 h): 0.2 µg/mL; MIC ([7]; Pseudomonas aeruginosa, PAO1, 20 h): 1.56 µg/mL; MIC ([8]; Klebsiella pneumoniae, PCI602, 20 h): 0.1 µg/mL; MIC ([9]; Proteus vulgaris, ATCC13315, 20 h): 0.2 µg/mL; MIC ([10]; Enterobacter cloacae, 963, 20 h): 0.2 µg/mL; MIC ([11]; Staphylococcus aureus, FDA209P, 20 h): 0.39 µg/mL; MIC ([12]; Salmonella enterica, ENTERITIDIS, 20 h): 0.78 µg/mL; MIC ([13]; Staphylococcus epidermidis, IAM1296, 20 h): 1.56 µg/mL
2 | CC1CC(=O)c2c(N3CCN(C)CC3)c(F)cc3c(=O)c(C(=O)O)cn1c23.Cl.O (single isomer, unassigned; (+)) [Present compound, (+)-9-fluoro-5-methyl-8-(4-methyl-1-piperazinyl)-6,7-dihydro-1,7-dioxo-1H,5H-benzo[ij]quinolizine-2-carboxylic acid hydrochloride monohydrate] | ~180 | 0.05 | 0.78 | 0.39 | ≤ 0.025 | 0.10 | 0.78 | ≤ 0.025 | 0.10 | 0.10 | 0.20 | 0.20 | 0.39 | solubility relative to the racemate ([1]; versus racemate): about 25 times; antibacterial activity relative to the racemate (compound [I]) [14]: about twice as potent
3 | CC1CC(=O)c2c(N3CCN(C)CC3)c(F)cc3c(=O)c(C(=O)O)cn1c23.Cl.O (single isomer, unassigned; (-)) [(-)-isomer, (-)-9-fluoro-5-methyl-8-(4-methyl-1-piperazinyl)-6,7-dihydro-1,7-dioxo-1H,5H-benzo[ij]quinolizine-2-carboxylic acid hydrochloride monohydrate] | – | 1.56 | > 100 | 3.13 | 0.78 | 3.13 | 12.5 | 0.78 | 0.78 | 3.13 | 25 | 1.56 | 50 | –
